Results on one compound are retold here after US20240239782A1, “SULFATE CRYSTALS OF MELANOCORTIN RECEPTOR AGONIST COMPOUND AND METHOD OF PRODUCING SAME” (LG CHEM, LTD., priority 2021, published 2024).

Structures are written as SMILES.

The procedure of this series:
Solubility indicates the result of measurement based on the final volume of water added to a sample when it is visually confirmed that the sample is completely dissolved by adding water to the sample. The solubility of the actual sample may be higher than the measured solubility. Solubility was measured based on the final volume of water added to a sample when it was visually confirmed that the sample was completely dissolved by adding water to the sample.

In the case of `CC(C)C(=O)N([C@H]1C[C@@H](C(=O)N2CCOCC2)N(C(=O)[C@@H]2CN(C(C)(C)C)C[C@H]2c2ccc(Cl)cc2)C1)[C@H]1CC[C@@H](C)CC1.O=S(=O)(O)O` [Example 2, N-((3S,5S)-1-((3S,4R)-1-(tert-butyl)-4-(4-chlorophenyl)pyrrolidine-3-carbonyl)-5-(morpholine-4-carbonyl)pyrrolidin-3-yl)-N-((1 s,4R)-4-methylcyclohexyl)isobutyramide sulfate], the solubility entry is given as “more than 56 mg/mL”.
